# From the Kinase Knowledgebase extract (Sharma et al. 2016)
# Several values for one entry are separate records, joined by “and”; a condition that tells them apart may be missing. Equal values may be shown once.
# What was measured:
# PIK3CD (Human) = PIK3CD (Human) (UniProt O00329); test: Inhibition of PIK3CD Kinase Activity
# PIK3CA (human) = PIK3CA (human) (UniProt P42336); test: Inhibition of PIK3CA Kinase Activity
# PIK3CB (Human) = PIK3CB (Human) (UniProt P42338); test: Inhibition of PIK3CB Kinase Activity
# PIK3CG (human) = PIK3CG (human) (UniProt P48736); test: Inhibition of PIK3CG Kinase Activity
# Sequence of PIK3CG (human) (P48736 whole entry, looked up): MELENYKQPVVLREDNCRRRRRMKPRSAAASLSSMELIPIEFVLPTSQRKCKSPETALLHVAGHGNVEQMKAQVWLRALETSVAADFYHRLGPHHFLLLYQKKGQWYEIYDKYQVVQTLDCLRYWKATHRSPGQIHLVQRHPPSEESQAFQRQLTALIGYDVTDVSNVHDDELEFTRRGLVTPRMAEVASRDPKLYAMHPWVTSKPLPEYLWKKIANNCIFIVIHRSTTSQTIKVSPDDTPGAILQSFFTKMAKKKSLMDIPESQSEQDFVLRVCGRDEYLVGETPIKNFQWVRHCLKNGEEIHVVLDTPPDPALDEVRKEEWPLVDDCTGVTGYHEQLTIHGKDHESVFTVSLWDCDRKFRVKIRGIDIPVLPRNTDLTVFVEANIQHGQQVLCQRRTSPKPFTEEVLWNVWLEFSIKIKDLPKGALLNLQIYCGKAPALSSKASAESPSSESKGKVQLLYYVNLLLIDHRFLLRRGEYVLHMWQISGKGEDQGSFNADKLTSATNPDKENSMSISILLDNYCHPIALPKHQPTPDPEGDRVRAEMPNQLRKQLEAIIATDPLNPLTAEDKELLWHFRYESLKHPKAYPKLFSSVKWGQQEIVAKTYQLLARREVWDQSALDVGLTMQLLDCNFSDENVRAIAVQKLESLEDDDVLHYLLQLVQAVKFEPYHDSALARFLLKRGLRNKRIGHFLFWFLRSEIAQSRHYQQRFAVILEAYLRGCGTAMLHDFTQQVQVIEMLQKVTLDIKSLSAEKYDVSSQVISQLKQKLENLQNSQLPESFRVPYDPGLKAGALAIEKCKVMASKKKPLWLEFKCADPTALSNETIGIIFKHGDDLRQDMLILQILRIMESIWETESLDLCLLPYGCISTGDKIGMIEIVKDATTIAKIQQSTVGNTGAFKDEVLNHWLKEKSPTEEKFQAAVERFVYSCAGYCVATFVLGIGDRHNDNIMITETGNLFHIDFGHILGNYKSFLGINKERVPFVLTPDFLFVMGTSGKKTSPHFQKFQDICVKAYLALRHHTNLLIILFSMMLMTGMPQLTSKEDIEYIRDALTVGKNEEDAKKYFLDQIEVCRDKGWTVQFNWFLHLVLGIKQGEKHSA
# Sequence of PIK3CA (human) (P42336 whole entry, looked up): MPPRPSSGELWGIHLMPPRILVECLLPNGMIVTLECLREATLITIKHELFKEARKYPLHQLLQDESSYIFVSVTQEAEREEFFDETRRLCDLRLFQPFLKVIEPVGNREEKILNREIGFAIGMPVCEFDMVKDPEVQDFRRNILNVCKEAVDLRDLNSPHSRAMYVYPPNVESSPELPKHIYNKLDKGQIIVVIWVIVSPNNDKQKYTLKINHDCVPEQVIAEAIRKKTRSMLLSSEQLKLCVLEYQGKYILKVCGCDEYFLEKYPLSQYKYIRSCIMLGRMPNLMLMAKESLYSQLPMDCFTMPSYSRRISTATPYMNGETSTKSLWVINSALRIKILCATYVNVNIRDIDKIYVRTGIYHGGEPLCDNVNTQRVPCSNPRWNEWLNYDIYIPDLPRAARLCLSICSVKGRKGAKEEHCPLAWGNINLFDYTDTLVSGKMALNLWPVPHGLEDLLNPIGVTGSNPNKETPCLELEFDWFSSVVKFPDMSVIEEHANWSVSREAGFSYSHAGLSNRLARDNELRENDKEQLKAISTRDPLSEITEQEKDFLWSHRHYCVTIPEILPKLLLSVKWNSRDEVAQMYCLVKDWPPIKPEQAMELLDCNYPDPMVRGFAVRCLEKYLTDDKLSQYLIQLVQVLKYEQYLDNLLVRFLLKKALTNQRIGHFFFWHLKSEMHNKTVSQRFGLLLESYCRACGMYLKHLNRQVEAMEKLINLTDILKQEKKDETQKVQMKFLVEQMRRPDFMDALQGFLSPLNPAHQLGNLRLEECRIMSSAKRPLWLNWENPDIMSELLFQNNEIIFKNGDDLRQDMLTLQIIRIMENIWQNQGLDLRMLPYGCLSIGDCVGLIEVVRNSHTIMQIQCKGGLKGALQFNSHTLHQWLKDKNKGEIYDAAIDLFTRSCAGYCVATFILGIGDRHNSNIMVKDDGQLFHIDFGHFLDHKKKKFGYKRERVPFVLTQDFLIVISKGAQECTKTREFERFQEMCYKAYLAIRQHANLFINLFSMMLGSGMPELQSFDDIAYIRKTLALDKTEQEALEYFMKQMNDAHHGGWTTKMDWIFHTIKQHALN
# Sequence of PIK3CD (Human) (O00329 whole entry, looked up): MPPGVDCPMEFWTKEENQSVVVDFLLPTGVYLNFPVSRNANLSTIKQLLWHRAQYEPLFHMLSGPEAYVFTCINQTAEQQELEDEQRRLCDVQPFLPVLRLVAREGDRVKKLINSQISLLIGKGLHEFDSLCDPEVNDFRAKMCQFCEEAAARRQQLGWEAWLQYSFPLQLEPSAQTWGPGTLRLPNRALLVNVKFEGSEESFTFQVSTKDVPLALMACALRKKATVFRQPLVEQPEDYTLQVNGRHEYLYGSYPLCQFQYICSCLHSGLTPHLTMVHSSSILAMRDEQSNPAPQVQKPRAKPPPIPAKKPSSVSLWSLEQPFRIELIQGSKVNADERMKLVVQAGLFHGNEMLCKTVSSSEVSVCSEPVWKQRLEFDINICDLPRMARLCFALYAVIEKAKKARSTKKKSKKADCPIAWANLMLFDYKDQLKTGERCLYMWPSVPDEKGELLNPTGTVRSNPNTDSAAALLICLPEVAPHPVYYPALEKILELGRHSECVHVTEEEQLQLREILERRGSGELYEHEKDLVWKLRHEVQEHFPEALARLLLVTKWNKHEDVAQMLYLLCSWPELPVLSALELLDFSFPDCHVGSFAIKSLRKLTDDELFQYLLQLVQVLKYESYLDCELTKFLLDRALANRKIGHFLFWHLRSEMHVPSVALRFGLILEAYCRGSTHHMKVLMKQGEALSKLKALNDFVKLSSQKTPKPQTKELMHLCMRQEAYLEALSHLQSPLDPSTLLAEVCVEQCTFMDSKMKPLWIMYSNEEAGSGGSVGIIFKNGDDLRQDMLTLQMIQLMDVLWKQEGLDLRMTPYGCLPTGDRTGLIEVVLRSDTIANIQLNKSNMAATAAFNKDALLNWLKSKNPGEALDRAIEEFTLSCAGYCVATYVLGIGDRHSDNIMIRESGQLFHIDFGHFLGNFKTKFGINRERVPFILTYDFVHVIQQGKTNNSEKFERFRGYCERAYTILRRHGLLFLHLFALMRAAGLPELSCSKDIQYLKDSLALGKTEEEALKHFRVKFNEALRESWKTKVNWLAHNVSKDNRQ
# Sequence of PIK3CB (Human) (P42338 whole entry, looked up): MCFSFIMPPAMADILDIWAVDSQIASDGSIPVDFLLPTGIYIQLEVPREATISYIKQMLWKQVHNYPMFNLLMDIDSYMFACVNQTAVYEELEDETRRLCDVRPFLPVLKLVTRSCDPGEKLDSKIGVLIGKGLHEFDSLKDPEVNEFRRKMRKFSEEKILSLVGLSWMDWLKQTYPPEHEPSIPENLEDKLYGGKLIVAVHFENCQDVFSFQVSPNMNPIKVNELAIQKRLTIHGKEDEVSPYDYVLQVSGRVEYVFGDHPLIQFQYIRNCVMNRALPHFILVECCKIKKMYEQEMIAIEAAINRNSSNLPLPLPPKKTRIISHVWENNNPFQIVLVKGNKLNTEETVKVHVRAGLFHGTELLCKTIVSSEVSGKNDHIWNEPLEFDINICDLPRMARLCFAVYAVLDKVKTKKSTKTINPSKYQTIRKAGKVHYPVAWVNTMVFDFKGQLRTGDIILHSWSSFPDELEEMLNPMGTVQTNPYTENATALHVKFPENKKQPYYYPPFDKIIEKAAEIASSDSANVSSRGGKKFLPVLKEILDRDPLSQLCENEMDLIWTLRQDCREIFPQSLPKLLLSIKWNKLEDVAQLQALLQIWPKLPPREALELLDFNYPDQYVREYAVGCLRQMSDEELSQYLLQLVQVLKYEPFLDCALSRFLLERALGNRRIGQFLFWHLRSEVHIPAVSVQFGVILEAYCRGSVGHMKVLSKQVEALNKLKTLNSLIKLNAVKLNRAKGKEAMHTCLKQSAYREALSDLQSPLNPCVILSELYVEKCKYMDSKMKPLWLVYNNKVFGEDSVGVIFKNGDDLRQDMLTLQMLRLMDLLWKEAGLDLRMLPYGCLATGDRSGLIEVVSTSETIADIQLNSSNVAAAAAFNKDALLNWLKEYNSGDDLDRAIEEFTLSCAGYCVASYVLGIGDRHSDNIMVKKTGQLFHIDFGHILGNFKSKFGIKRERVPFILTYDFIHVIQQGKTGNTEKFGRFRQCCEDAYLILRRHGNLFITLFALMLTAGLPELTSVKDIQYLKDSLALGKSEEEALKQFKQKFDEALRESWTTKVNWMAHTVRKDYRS
IC50 (PIK3CD (Human)) [nM],IC50 (PIK3CA (human)),IC50 (PIK3CB (Human)) [nM],IC50 (PIK3CG (human)),Structure (SMILES)
333,301 nM,2650,9.07 µM,CC(=O)Nc1cccc(-c2nc(N3CCOCC3)c3oc4ncccc4c3n2)c1
–,5000 nM and 784 nM,–,3.5 µM and 3.24 µM,Cc1cc(C(C)Nc2ccccc2)c2nc(N3CCOCC3)cc(=O)n2c1 (stereo unspecified)
